Test results published in ChEMBL document CHEMBL4190316, “Synthesis and biological evaluation of 4-biphenylamino-5-halo-2(5H)-furanones as potential anticancer agents” (Eur J Med Chem, 2017).
Activity calls are given as the source filed them. The calls are words filed in the database; no cut-off is given here.

Columns and labels:
C6 = assay: Cytotoxicity against rat C6 cells assessed as reduction in cell viability after 72 hrs by MTT assay; assay type: functional, cell-based; conditions: C6, 72 h
HaCaT = assay: Cytotoxicity against human HaCaT cells assessed as reduction in cell viability after 72 hrs by MTT assay; assay type: cell-based
CNE = assay: Cytotoxicity against human CNE1 cells assessed as reduction in cell viability after 72 hrs by MTT assay; assay type: functional, cell-based
[1] = Cytotoxicity against human NCI-EC1 cells assessed as reduction in cell viability after 72 hrs by MTT assay; assay type: functional, cell-based
MDA-MB-231 = assay: Cytotoxicity against human MDA-MB-231 cells assessed as reduction in cell viability after 72 hrs by MTT assay; assay type: functional, cell-based; conditions: MDA-MB-231, 72 h
MCF7 = assay: Cytotoxicity against human MCF7 cells assessed as reduction in cell viability after 72 hrs by MTT assay; assay type: functional, cell-based; conditions: MCF7, 72 h
HepG2 = assay: Cytotoxicity against human HepG2 cells assessed as reduction in cell viability after 72 hrs by MTT assay; assay type: functional, cell-based; conditions: HepG2, 72 h
[2] = Octanol-water partition coefficient, log P of the compound at 10 mM after 24 hrs by UV-vis spectroscopic method; assay type: physicochemical
Quadruplex DNA [3] = assay: Effect on conformation of c-Myc G-quadruplex DNA (unknown origin) at 1 mM measured every 3 mins by CD spectroscopic analysis; assay type: nucleic-acid assay
Quadruplex DNA [4] = assay: Binding affinity to c-Myc G-quadruplex DNA (unknown origin) at 20 uM incubated for 3 mins by electronic absorption spectra method; assay type: nucleic-acid assay
Quadruplex DNA [5] = assay: Binding affinity to c-Myc G-quadruplex DNA (unknown origin) assessed as hypochromism at 20 uM incubated for 3 mins by electronic absorption spectra method; assay type: nucleic-acid assay
Quadruplex DNA [6] = assay: Binding affinity to c-Myc G-quadruplex DNA (unknown origin) at 20 uM incubated for 2 mins by fluorescence emission spectra method; assay type: nucleic-acid assay

Row | SMILES | IC50 (C6) [µM] | IC50 (HaCaT) [µM] | IC50 (CNE) [µM] | IC50 [1] [µM] | IC50 (MDA-MB-231) [µM] | IC50 (MCF7) [µM] | IC50 (HepG2) [µM] | logP at 24 h, 10000 µM [2] | Activity (Quadruplex DNA [3]) | K (Quadruplex DNA [4]) [×10⁶ /M] | Activity (Quadruplex DNA [5]) [%] | Activity (Quadruplex DNA [6])
1 | CCOC1OC(=O)C(Br)=C1Nc1ccc(-c2ccccc2)cc1 (centres undefined) | 27.4 | 50.8 | 41.8 | 55 | 70.4 | 46.6 | 34.9 | 1.74 | – | – | – | –
2 | CC(=O)OC1OC(=O)C(Br)=C1Nc1ccc(-c2ccccc2)cc1 (centres undefined) | 44.4 | 91.4 | 81.7 | 34.9 | 60.2 | 37.3 | 27.4 | 1.31 | inactive | 9.4 | 17 | Active
3 | CCOC1OC(=O)C(Br)=C1Nc1ccc(-c2ccc(N)cc2)cc1 (centres undefined) | 56.9 | 70.8 | 90.1 | 82.8 | 48.6 | 58.1 | 55.8 | 1.58 | – | – | – | –
4 | CCOC1OC(=O)C(Cl)=C1Nc1ccc(-c2ccccc2)cc1 (centres undefined) | 47.9 | 49.8 | 47 | 56 | 38.5 | 44.6 | 40.1 | 1.33 | – | – | – | –
5 | COC1OC(=O)C(Cl)=C1Nc1ccc(-c2ccc(N)cc2)cc1 (centres undefined) | 64.8 | > 100 | > 100 | > 100 | > 100 | > 100 | > 100 | 0.913 | – | – | – | –
